Assay results reported in ChEMBL document CHEMBL5143564, “PES derivative PESA is a potent tool to globally profile cellular targets of PES” (Bioorg Med Chem Lett, 2022).
Active and inactive are the calls of the source.

What was measured:
[1] = target: T1, Peroxiredoxin-5, mitochondrial (Homo sapiens) (UniProt P30044); assay: Binding affinity to PRDX5 in human DOHH-2 cells measured after 6 hrs by pull-down assay; format: cell-based; conditions: DDE = dose-dependent effect
T1 sequence (whole entry): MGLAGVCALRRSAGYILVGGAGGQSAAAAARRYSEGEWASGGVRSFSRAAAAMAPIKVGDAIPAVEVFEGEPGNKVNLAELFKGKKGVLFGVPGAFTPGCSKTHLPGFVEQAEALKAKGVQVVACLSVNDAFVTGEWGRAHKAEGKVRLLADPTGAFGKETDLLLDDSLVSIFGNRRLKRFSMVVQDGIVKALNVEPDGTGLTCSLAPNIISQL

[2] = target: Coronin-1A (Homo sapiens) (UniProt P31146); assay: Binding affinity to coronin-1A in human DOHH-2 cells measured after 6 hrs by pull-down assay; format: cell-based; conditions: DDE = dose-dependent effect
Coronin-1A (Homo sapiens), sequence (P31146 whole entry): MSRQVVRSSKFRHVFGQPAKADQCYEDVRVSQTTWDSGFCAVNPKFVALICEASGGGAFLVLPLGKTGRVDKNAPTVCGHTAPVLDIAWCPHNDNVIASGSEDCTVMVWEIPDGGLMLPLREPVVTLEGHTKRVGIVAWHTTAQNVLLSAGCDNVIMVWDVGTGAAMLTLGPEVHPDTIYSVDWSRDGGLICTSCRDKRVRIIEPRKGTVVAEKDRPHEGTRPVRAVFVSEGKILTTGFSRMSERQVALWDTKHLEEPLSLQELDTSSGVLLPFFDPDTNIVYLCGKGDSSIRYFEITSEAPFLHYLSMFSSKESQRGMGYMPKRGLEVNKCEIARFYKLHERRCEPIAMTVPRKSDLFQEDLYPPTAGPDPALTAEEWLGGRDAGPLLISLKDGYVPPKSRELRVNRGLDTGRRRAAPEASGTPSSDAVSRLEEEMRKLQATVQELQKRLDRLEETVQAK

[3] = target: Glutathione S-transferase 3, mitochondrial (Homo sapiens) (UniProt O14880); assay: Binding affinity to MGST3 in human MDA-MB-453 cells measured after 6 hrs by pull-down assay; format: cell-based; conditions: dose <= 20.0 µM, DDE = dose-dependent effect
Glutathione S-transferase 3, mitochondrial (Homo sapiens), sequence (O14880 whole entry): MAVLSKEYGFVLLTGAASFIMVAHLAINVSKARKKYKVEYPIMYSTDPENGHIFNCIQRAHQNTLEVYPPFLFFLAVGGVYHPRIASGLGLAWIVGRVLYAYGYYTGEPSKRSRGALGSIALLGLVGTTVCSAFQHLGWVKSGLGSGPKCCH

[4] = target: T2, D-3-phosphoglycerate dehydrogenase (Homo sapiens) (UniProt O43175); assay: Binding affinity to D-3-phosphoglycerate dehydrogenase in human DOHH-2 cells measured after 6 hrs by pull-down assay; format: cell-based; conditions: DDE = dose-dependent effect
T2 sequence (whole entry): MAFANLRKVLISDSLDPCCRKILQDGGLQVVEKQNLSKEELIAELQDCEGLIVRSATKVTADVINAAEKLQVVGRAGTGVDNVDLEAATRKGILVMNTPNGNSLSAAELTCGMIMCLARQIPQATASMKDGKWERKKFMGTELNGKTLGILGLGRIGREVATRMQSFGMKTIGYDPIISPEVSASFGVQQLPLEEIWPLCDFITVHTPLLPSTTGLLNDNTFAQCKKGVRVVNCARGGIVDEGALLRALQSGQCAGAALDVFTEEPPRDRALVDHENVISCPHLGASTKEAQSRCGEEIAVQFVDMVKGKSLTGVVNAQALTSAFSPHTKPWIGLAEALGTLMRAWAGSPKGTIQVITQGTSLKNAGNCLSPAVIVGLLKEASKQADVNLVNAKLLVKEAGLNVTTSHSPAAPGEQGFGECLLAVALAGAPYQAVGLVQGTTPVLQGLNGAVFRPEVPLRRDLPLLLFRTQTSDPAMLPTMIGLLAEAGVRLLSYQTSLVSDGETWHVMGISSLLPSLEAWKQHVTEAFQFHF

[5] = target: T3, Thioredoxin-dependent peroxide reductase, mitochondrial (Homo sapiens) (UniProt P30048); assay: Binding affinity to PRDX3 in human DOHH-2 cells measured after 6 hrs by pull-down assay; format: cell-based; conditions: DDE = dose-dependent effect
T3 sequence (whole entry): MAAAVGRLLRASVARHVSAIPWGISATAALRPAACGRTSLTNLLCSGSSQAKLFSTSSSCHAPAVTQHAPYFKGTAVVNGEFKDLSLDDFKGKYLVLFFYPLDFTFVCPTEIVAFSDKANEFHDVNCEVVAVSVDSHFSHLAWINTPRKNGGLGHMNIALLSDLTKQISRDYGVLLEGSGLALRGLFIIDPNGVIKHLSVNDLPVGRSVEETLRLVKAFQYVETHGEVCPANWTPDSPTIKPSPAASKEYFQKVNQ

[6] = target: T1, Peroxiredoxin-5, mitochondrial (Homo sapiens); assay: Binding affinity to PRDX5 in human DOHH-2 cells by MS analysis; format: cell-based
DOHH-2 [7] = assay: Up regulation of HSP90alpha expression in human DOHH-2 cells at 8 uM measured after 4 to 24 hrs by Western blot analysis; format: functional, cell-based; conditions: time 4-24 hrs
DOHH-2 [8] = assay: Up regulation of HSP70 expression in human DOHH-2 cells at 8 uM measured after 4 to 24 hrs by Western blot analysis; format: functional, cell-based; conditions: time 4-24 hrs
[9] = target: T4, Protein disulfide-isomerase A4 (Homo sapiens) (UniProt P13667); assay: Binding affinity to PDIA4 in human DOHH-2 cells by MS analysis; format: cell-based
T4 sequence (whole entry): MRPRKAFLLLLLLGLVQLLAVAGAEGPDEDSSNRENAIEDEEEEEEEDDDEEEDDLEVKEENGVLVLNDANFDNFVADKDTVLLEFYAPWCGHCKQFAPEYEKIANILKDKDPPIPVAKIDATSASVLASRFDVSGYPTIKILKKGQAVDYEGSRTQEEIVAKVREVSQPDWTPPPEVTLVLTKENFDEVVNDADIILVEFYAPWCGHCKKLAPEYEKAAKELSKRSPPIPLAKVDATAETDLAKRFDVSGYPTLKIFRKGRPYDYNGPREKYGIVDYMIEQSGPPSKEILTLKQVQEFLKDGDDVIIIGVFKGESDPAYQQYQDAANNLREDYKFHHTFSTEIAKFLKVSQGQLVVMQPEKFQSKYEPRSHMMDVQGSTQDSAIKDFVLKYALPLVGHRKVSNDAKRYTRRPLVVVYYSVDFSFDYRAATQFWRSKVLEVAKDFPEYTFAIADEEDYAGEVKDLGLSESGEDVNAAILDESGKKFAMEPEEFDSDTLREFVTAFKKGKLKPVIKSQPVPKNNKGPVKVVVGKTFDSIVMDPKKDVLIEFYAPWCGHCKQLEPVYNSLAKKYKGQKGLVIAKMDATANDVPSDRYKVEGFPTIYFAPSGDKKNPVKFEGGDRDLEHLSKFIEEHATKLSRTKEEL

[10] = target: Elongation factor 2 (Homo sapiens) (UniProt P13639); assay: Binding affinity to elongation factor 2 in human DOHH-2 cells by MS analysis; format: cell-based
[11] = target: T5, Peroxiredoxin-1 (Homo sapiens) (UniProt Q06830); assay: Binding affinity to PRDX1 in human DOHH-2 cells measured after 6 hrs by pull-down assay; format: cell-based; conditions: DDE = dose-dependent effect
T5 sequence (whole entry): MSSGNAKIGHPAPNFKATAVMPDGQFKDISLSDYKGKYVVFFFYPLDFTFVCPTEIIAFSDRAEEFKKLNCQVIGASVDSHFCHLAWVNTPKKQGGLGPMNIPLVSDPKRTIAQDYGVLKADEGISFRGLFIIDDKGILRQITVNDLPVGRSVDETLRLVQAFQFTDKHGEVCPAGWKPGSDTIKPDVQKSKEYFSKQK

Jurkat = assay: Cytotoxicity against human Jurkat T cells up to 20 uM measured after 24 hrs; format: functional, cell-based
[12] = target: T6, Peroxiredoxin-2 (Homo sapiens) (UniProt P32119); assay: Binding affinity to PRDX2 in human DOHH-2 cells by MS analysis; format: cell-based
T6 sequence (whole entry): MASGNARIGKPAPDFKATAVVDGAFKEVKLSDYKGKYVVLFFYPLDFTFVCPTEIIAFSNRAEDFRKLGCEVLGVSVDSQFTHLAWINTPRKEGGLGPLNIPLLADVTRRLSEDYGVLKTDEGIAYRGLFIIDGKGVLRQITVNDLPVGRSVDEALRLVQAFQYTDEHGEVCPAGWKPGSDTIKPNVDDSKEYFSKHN

Measured: Activity

C#Cc1cccc(C#CS(N)(=O)=O)c1
active: [1] Dde | [2] Dde | [3] Dde | [4] Dde | [5] Dde | [6] | DOHH-2 [7] | DOHH-2 [8] | [9] | [10] | [11] Dde | Jurkat | [12]
